From PMC5532363, “Synergistic blending of high-valued heterocycles inhibits growth of Plasmodium falciparum in culture and P. berghei infection in mouse model” (Scientific Reports, 2017)

Legend:
P. falciparum 3D7 = test: Fixed-ratio isobologram drug interaction assay with CQ/DHA, 3D7; type: cell-based, Plasmodium falciparum; settings: Pf3D7
Experimental: (§1) A modified fixed-ratio isobologram method was used to assess interaction between CQ/DHA and Pht analogues. Briefly, a total of 5 solutions containing fixed-ratio mixtures of Pht derivatives with either CQ or DHA were prepared in the following ratios: 1:1, 2:1, 3:2, 2:3, and 1:4. The starting concentrations for ten 2 fold-serial dilutions across the microtiter plate were assigned so that the IC50 of each drug would be in the 5th serial dilution of the plate. Each drug was tested alone and at fixed ratios of its IC50. The assessment of drug interaction was based on the calculation of the fractional inhibitory concentration (FIC) of two drugs in the […]. FIC was calculated for each association by dividing the IC50 of the drug in the combination by the IC50 of the drug alone.

P. falciparum W2 = test: Fixed-ratio isobologram drug interaction assay with CQ/DHA, W2; type: cell-based, Plasmodium falciparum; settings: PfW2
Experimental: as §1

P. berghei NK65 = test: Modified Peter's 4-day suppressive test in P. berghei NK65 infected Swiss albino mice; type: in vivo, Plasmodium berghei; settings: for effect on parasite load / effect on survival: 50 mg/kg s.c. for four consecutive days (artemisinin 5 mg/kg in combination), vs untreated; for median survival time (MST): 6h/6u 50 mg/kg, artemisinin 5 mg/kg, s.c. for four consecutive days, n = 6/group
Experimental: The antimalarial effect of two active analogues, 6h and 6u (administered at 50 mg/kg of body weight), was determined in mice infected with P. berghei NK65, a strain, which results in high levels of blood-stage parasitemia. […] However, the 6u analogue had better antimalarial efficacy than the 6h analogue (Fig. 6A). As such, we then evaluated the efficacy of 6u (50 mg/kg) in combination with artemisinin (5 mg/kg of body weight) at reduced dosage in the murine malaria model. […] The median survival times of animals treated with Pht 6u alone, as well in combination with ART were 23 and 27.5 days, respectively (P<0.001).
Figure 6 Antimalarial effect of Pht analogs (6h and 6u) alone and in combination with Artemisinin (6u and ART) on parasitemia and survival in mice infected with P. berghei NK65. Mice were injected with 1 × 10^7 P. berghei infected RBCs. After 48 hours mice were treated with control (PBS: untreated), 6h and 6u (alone), and 6u in combination with artemisinin (all injected subcutaneously) for four consecutive days. The % of parasitemia was determined for the groups on days 5, 8 and 15 by randomly selecting 10 different optical fields on blood smears. (A) Administration of 6h and 6u (alone), and 6 u in combination with ART. Data are the mean ± SEM from six animals per treatment group. (B) Survival in the treatment groups (n = 6/group). (C) Photomicrograph of blood smears of untreated versus treatment groups at day 15 post infection (100x magnification). ART, Artemisinin; *P < 0.05. TEXT PRINTED IN THE PICTURE: (B) Phthalimide 6h: MST- 19.5 | (B) Phthalimide 6u: MST- 23 | (B) Artemisinin: MST- 21.5 | (B) Phthalimide 6u+Artemisinin: MST- 27.5
All animal experiments were performed in female Swiss albino mice (4 to 5 weeks old, weighing 25 to 30 g). The animals were housed under standard controlled conditions at 25 °C with a 12-h light-dark cycle and access to sterilized food pellets and water. All experiments were carried out in accordance with the standard procedures approved by the Animal Ethics Committee of the University of Delhi South Campus, under the Control and Supervision of Experiments on Animals (CPCSEA), Ministry of Social Justice and Empowerment, Government of India. […] The antimalarial activity was carried out in accordance with a slightly modified version of the Peter’s 4-day suppressive test[43]. The animals were assigned to each group (n = 6). Subsequently, after 48 hour of postinfection, the parasitemia level reached 1 to 2%, and all the groups of mice were treated by subcutaneous (s.c.) injection with compounds 6h and 6u alone as well in combination with artemisinin solubilized in DMSO. One group was kept as a control and treated with physiological saline. The efficacy of the treatment was monitored by measuring the parasitemia and survival on days 5, 8 and 15 posttreatments by obtaining thin smears of blood withdrawn from the tail vein of infected mice and staining with 10% Giemsa. The level of parasitemia was determined by counting infected and noninfected erythrocytes from 10 to 15 randomly selected optical fields at 100x magnification and expressed as the number of infected erythrocytes per 100 erythrocytes. The survival of mice was recorded and observed for external symptoms, such as change in body weight, ruffled fur, lethargy and paralysis, until 30 or 40 days posttreatment. The reduction in the level of parasitemia was taken as the index for the curative activities of the drugs. The percentage of parasitemia was calculated manually with the Cell Counting Aid software[44] using the formula (total no. of parasitized RBCs)/(total no. of RBCs) × 100.
For in-vivo experiments, statistical differences between two groups were determined by Student’s t test and between multiple groups using one-way analysis of variance (ANOVA), with P values of <0.05, by GraphPad Prism (version 5.01; GraphPad Software, Inc., CA). […]

[1] = MTT cytotoxicity assay in U937 cells; type: cell-based; settings: human; for selectivity ratio at 24 h: U937 cells (CC50) versus 3D7 parasites (IC50), read-out: selectivity index (SI); for CC50 at 24 h: U937 cells, MTT
Experimental: As a final step in the investigational pipeline, we determined the cytotoxic effect of the four active analogues (6a, 6h, 6m and 6u) in U937 cell lines by measuring 50% cytotoxic concentrations (CC50) and calculating selectivity indices (SIs) as a measure of toxicity in human cells.
Cytotoxicity of the 4 select Pht compounds on human cells was evaluated by assessing cell viability of the U937, a human acute monocyte leukemia cell lines by use of the MTT assay. U937 was acquired from American Type Culture Collection (ATCC, Rockville, MD) and maintained in RPMI 1640 medium supplemented with 10% fetal bovine serum, and Penicillin-streptomycin (1% v/v) (Gibco, UK) at 37 °C. Robust U937 cells at a concentration of 80,000 cells/ml were plated into 96-well plates and incubated for 24 hours. Six concentrations of the Pht compounds were added in a two-fold dilution from starting concentration of 50 to 1.56 µM in triplicate and incubated with the cells for 24 hours. This was followed by addition of 10 µL MTT solution (5 mg/mL) into each well, incubated for 4 hour at 37 °C followed by addition of 50 µL DMSO to dissolve the formazan precipitate according to manufacturer’s protocol. Aliquots were drawn from each well and color intensity was measured spectrophotometrically in an ELISA plate reader (Biotek, ELx800) at 540 nm. The cell viability ratio was calculated by the following formula: % cytotoxicity = [Mean OD of test cells] − [Mean OD of control cells]/[Mean OD of control cells] × 100. Viability counts were then plotted against corresponding drug concentrations to yield cytotoxicity (CC50) through non-linear regression (sigmoid dose-response/variable slope equation). Drug CC50 values were then used to define selectivity indices, which is a measure of drug safety in human relative to parasitic cells and was calculated as the ratio of the CC50 value determined on the U937 cells (cytotoxicity) and the IC50 value determined on parasite growth inhibition 3D7 (anti-plasmodial activity). In this study, we set SI > 2 as cut-off as an indicative of low drug cytotoxicity.

Compound: CC[C@@H](C)[C@H](c1nc2ccccc2n1Cc1cn(-c2ccc(F)cc2)nn1)N1C(=O)c2ccccc2C1=O [Compound 6h]
- interaction when combined with CQ and DHA (P. falciparum 3D7): synergistic activity
- interaction when combined with CQ and DHA (P. falciparum W2): synergistic activity
- effect on parasite load (P. berghei NK65): suppression of the parasite load
- effect on survival (P. berghei NK65): improved survival
- median survival time (MST) (P. berghei NK65): 19.5 days
- selectivity ratio at 24 h [1]: 41.2 ± 1.7
- CC50 at 24 h [1]: 28.8 ± 0.67 µM

Compound: CC(C)C[C@H](c1nc2ccccc2n1Cc1c[nH]nn1)N1C(=O)c2ccccc2C1=O [Compound 6u]
- interaction when combined with CQ and DHA (P. falciparum 3D7): synergistic activity
- interaction when combined with CQ and DHA (P. falciparum W2): synergistic activity
- effect on parasite load (P. berghei NK65): suppression of the parasite load
- effect on survival (P. berghei NK65): improved survival
- median survival time (MST) (P. berghei NK65): 23 days
- selectivity ratio at 24 h [1]: 2.31 ± 0.76
- CC50 at 24 h [1]: 2.08 ± 1.6 µM
